Results on two compounds are retold here after US20260062432A1 (REXPHARMTECH CO., LTD, priority 2022, published 2026).

In series [1] the test system is patients with mild cognitive impairment or Alzheimer's disease. The conditions noted are these: cited from earlier work.
Series [2] concerns mouse model of Alzheimer's disease. The conditions noted are these: cited from earlier work.
The nature of series [3]: Solubility test (saturated solution, HPLC). Type of series: physicochemical. As for the experimental part: After diluting a reference solution with 50% acetonitrile, a calibration curve (range: […]) was prepared by USP compendial HPLC analysis, and the concentration of the saturated solution was obtained from a first-order function of the prepared calibration curve.

Series [4] is described as follows: Stability test under harsh conditions (60° C.±2° C.), HPLC analysis. Type of series: physicochemical. The conditions noted are these: for purity (HPLC), Day 3 / purity (HPLC), Day 7 / purity (HPLC), Day 14 / purity (HPLC), Day 21 / purity (HPLC), Initial: harsh conditions 60° C.±2° C.; for purity change: stability test for 21 days under harsh conditions. As for the experimental part:
A stability test of a pharmaceutical means to confirm the stability of constant quality over time under certain conditions to set the storage method and shelf life of the pharmaceutical. Therefore, an expiration date of a product is set by setting appropriate specifications and evaluating conformance to the specifications by evaluating significant changes based on a prescribed analytical method.
Specifically, a stability test was conducted under harsh conditions (60° C.±2° C.) according to the ICH guidelines, and an analysis was performed by high-performance liquid chromatography (HPLC) analysis.

The conditions of series [5]: versus thiamine hydrochloride or thiamine nitrate; cited from earlier work.
Series [6] deals with p-ERK, p-AKT, and NR2B in primary cultured hippocampal neurons. Put plainly: Immunoblot test: activation of neuroplastic factors in hippocampal cells. Type of series: cell-based, SD rats (Sprague-Dawley rats). Particulars: 1 or 3 μg/ml, 10 minutes, FIG. 5. The protocol: All cells used in the experiment were primary cultured hippocampal neurons. Hippocampal neurons were isolated from embryos of SD rats (Sprague-Dawley rats, Samtaco Korea) on gestation Day 18 and Day 19. A hippocampal nerve tissue of fetal rats was physically separated by using a dissecting microscope and then placed in HBSS (Hank's Balanced Salt Solution) supplemented with 0.25% trypsin and treated at 37° C. for 10 minutes. After washing the hippocampal nerve tissue with HBSS, single cells were isolated by carefully pipetting with a pipette. The isolated cells were cultured by filling a 60 mm cell culture dish, coated with Poly-L-lysine (0.5 mg/ml) in advance, with Neurobasal/B27 medium (0.5 mM L-glutamine, 25 μM glutamate, 25 μM 2-mercaptoethanol, 100 U/mL penicillin, 100 μg/ml streptomycin) at 5% CO2 and 37° C. The medium was exchanged on cell culture Day 4 and Day 11, and the cells were used in the experiment on culture Day 14. To confirm p-ERK, p-AKT, and NR2B in cells, the medium of primary cultured hippocampal neurons cultured for 14 days was changed to a B-27-free medium at least 1 hour before drug treatment. […] The disrupted cell solution was quantified according to a protein quantification method, and then for protein analysis (immunoblotting), the protein was subjected to electrophoresis on 8% and 10% SDS-polyacrylamide gel. The membrane was subjected to a reaction at room temperature for 1 hour by adding 5% skim milk. A primary antibody was treated with tris buffered saline at a ratio of 1:1000, subjected to a reaction at 4° C. for 24 hours, and then washed three times with TBST (25 mM Tris-Hcl, 140 mM NaCl, 0.1% Tween 20, pH 7.5). After that, a secondary antibody was subjected to a reaction with Anti-Rabbit or Anti-Mouse antibody (HRP-linked) in 3% skim milk at a ratio of 1:5000 for 1 hour. The coupled antibody complex was confirmed by using West Femto Maximum Sensitivity Substrate (Thermo), and the results are shown in FIG. 5.
(In general: Immunoblotting shows a protein as a band on a membrane.)

≈ marks a conversion by molar mass, not a printed value. Structures can show the parent of a compound that is named as a salt.

With `C/C(=C(\CCOP(=O)(O)O)SC(=O)c1ccccc1)N(C=O)Cc1cnc(C)nc1N` [Comparative Example, benfotiamine], the “rate of functional decline” value in series [1] is “effective and safe in slowing down the rate of functional decline”. Further, in series [2], the “level of phosphorylated tau” value is given as “reduces”, the “number of amyloid plaques” value is on record as “reduces” and the spatial memory entry is listed as “improves spatial memory in a dose-dependent manner”. Besides, in series [3] (Purified water), the Solubility was determined as 3000 µg/mL (≈ 6.43 mM). The same compound displayed a Solubility in series [3] (pH 1.2) of 5600 µg/mL (≈ 12 mM). In series [3] (pH 4.0), this compound showed a Solubility of 3100 µg/mL (≈ 6.65 mM). Also, the Solubility in series [3] (pH 6.8) stood at 6600 µg/mL (≈ 14.1 mM). Also, in series [3] (purified water and solutions at pH 1.2, pH 4.0 and pH 6.8, aqueous buffer, thermodynamic from solid, purified water and solutions at pH 1.2, pH 4.0 and pH 6.8, read-out: solubility (range over all media)), the solubility at 1 h lay in the range of 3000 to 6600 µg/mL (≈ 6.43 to 14.1 mM). Also, in series [4], the “purity (HPLC), Day 3” value is listed as 99.1; the “purity (HPLC), Day 7” value is on record as 98.6; the “purity (HPLC), Day 14” value amounted to 97.5; the “purity (HPLC), Day 21” value is given as 97.0. For the same compound, in series [4], the “purity (HPLC), Initial” value was 99.5 and the purity change is 2.5%. Further, in series [5], the “bioavailability higher than thiamine hydrochloride or thiamine nitrate” value is recorded as “about 3.6 times”.
With `C/C(=C(\CCOP(=O)(O)O)SC(=O)c1ccccc1)N(C=O)Cc1cnc(C)nc1N` [Example 1, benfotiamine choline salt], in series [6], the “level of NR2B” value is listed as “effectively increased”, the “level of phosphorylated Akt” value was “effectively increased” and the “level of phosphorylated ERK” value is “effectively increased”. For the same compound, the Solubility in series [3] (Purified water) was 652100 µg/mL. In series [3] (pH 1.2), this compound showed a Solubility of 898400 µg/mL. In addition, in series [3] (pH 4.0), the Solubility stood at 690200 µg/mL. The compound also gave a Solubility in series [3] (pH 6.8) of 820000 µg/mL. For the same compound, the “solubility (in words)” value in series [3] (purified water and all solutions at pH 1.2, pH 4.0, and pH 6.8) is on record as “very high solubility”. Also, in series [4], the “purity (HPLC), Day 3” value stood at 99.2; the “purity (HPLC), Day 7” value is listed as 99.1; the “purity (HPLC), Day 14” value is 99.0; the “purity (HPLC), Day 21” value stood at 98.2. Further, in series [4], the “purity (HPLC), Initial” value amounted to 99.3 and the purity change was found to be 1.1%.

For orientation: Solubility means how much of the substance goes into solution per volume. Lower therefore signals a poorly soluble substance. Usually solubility stands for how much of the substance goes into solution per volume.
